Results: ChEMBL document CHEMBL4665653, “VU6005806/AZN-00016130, an advanced M positive allosteric modulator (PAM) profiled as a potential preclinical development candidate” (Bioorg Med Chem Lett, 2019)
≈ marks a conversion by molar mass, not a printed value.

Key:
[1] = molecular target: Muscarinic acetylcholine receptor M3 (Homo sapiens, UniProt P20309); test: Positive allosteric modulation of human M3 receptor
[2] = Hepatic clearance in rat; assay type: ADME; conditions: in vivo
[3] = Fraction unbound in rat plasma; assay type: ADME, cell-free
[4] = Fraction unbound in rat brain; assay type: ADME, tissue-based
[5] = Brain to plasma permeability coefficient, Kp in Sprague-Dawley rat at 0.1 to 0.2 mg/kg, iv measured after 0.25 hrs; assay type: ADME, organism-based; conditions: dose 0.1-0.2 mg/kg
[6] = Unbound brain-to-plasma concentration ratio in Sprague-Dawley rat at 0.1 to 0.2 mg/kg, iv measured after 0.25 hrs; assay type: ADME, organism-based; conditions: dose 0.1-0.2 mg/kg, read-out: K(p,uu,brain)
[7] = tested on: P-gp; test: Substrate activity at human P-gp expressed in MDCK-MDR1 cells assessed as efflux ratio; assay type: ADME, cell-based
[8] = Solubility of the compound in FaSSIF; assay type: physicochemical
[9] = molecular target: Muscarinic acetylcholine receptor M4 (Rattus norvegicus, UniProt P08485); test: Positive allosteric modulation of rat M4 receptor
Sequence of Muscarinic acetylcholine receptor M4 (P08485 whole entry): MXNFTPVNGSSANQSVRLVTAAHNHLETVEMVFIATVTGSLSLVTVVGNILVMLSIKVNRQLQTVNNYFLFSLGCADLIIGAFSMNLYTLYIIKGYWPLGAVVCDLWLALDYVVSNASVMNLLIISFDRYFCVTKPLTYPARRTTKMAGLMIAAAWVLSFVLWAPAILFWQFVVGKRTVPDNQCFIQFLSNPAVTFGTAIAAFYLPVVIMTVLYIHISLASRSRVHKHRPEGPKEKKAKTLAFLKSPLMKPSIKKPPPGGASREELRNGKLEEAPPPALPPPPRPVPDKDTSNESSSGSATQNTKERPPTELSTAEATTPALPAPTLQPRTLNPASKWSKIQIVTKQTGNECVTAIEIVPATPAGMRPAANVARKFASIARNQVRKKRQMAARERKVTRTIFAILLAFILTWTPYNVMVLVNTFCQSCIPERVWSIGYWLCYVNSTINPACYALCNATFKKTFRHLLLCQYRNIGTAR

[10] = molecular target: Muscarinic acetylcholine receptor M4 (Rattus norvegicus) (UniProt P08485); test: Positive allosteric modulation of rat M4 receptor relative to acetylcholine; conditions: filed as positive allosteric modulator
Sequence of Muscarinic acetylcholine receptor M4 (Rattus norvegicus) (P08485 whole entry): as above

[11] = Positive allosteric modulation of dog M4 receptor; design: species or system Canis lupus familiaris
[12] = species: Canis lupus familiaris; test: Positive allosteric modulation of dog M4 receptor relative to acetylcholine
[13] = molecular target: Muscarinic acetylcholine receptor M5 (Rattus norvegicus, UniProt P08911); test: Positive allosteric modulation of rat M5 receptor
Sequence of Muscarinic acetylcholine receptor M5 (P08911 whole entry): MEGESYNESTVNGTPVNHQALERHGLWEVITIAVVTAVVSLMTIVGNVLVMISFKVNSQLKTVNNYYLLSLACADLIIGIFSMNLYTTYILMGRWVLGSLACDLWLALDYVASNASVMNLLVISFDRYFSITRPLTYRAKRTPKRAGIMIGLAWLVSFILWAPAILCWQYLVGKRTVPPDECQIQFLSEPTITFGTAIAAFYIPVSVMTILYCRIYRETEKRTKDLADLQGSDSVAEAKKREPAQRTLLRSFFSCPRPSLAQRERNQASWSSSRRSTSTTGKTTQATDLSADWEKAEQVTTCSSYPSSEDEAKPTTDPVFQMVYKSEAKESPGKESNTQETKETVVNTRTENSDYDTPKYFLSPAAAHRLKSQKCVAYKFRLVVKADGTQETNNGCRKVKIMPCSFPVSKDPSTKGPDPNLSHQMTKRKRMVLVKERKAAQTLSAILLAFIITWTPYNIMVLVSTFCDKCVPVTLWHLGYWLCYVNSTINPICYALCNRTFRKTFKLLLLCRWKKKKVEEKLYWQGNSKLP

[14] = molecular target: Cytochrome P450 2D6 (Homo sapiens, UniProt P10635); test: Inhibition of CYP2D6 (unknown origin); assay type: ADME
Sequence of Cytochrome P450 2D6 (P10635 whole entry): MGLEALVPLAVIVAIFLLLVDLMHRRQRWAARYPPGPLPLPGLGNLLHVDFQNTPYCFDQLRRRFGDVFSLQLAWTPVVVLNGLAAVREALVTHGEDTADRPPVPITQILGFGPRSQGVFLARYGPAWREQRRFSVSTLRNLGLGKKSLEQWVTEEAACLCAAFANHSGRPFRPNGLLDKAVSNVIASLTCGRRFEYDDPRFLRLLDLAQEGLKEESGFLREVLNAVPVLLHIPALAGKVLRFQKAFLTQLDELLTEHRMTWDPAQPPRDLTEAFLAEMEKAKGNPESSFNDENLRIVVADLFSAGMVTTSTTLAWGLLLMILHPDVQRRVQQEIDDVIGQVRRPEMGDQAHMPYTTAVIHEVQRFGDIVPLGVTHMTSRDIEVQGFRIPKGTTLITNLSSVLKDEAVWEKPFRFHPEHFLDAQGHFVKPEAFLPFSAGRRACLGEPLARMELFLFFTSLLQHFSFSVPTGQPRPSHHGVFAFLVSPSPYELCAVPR

[15] = molecular target: Cytochrome P450 1A2 (Homo sapiens, UniProt P05177); test: Inhibition of CYP1A2 (unknown origin); assay type: ADME
Sequence of Cytochrome P450 1A2 (P05177 whole entry): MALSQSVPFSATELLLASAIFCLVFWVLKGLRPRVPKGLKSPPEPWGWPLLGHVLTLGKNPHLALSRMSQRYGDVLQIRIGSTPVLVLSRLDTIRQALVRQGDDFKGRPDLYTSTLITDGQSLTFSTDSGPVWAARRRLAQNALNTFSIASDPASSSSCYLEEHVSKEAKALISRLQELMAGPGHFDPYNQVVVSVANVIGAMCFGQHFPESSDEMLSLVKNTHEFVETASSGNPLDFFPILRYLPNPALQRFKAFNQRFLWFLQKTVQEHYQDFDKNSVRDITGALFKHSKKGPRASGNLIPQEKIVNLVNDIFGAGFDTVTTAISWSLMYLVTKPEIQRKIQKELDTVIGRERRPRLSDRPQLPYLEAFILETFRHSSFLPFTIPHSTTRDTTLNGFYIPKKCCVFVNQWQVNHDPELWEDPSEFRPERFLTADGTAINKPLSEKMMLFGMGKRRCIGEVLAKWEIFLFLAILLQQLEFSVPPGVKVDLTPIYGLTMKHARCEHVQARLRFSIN

[16] = Oral bioavailability in rat at 3 mg/kg administered as suspension; assay type: ADME, organism-based; conditions: in vivo
[17] = Plasma clearance in cynomolgus monkey; assay type: ADME, Macaca fascicularis; conditions: read-out: CL(app)
[18] = Volume of distribution at steady state in cynomolgus monkey; assay type: ADME, Macaca fascicularis; conditions: in vivo, read-out: Vdss
[19] = Half life in cynomolgus monkey; assay type: ADME, Macaca fascicularis; conditions: in vivo
[20] = tested on: Rattus norvegicus; test: Reversal of amphetamine-induced hyperlocomotion in rat at 3 mg/kg, po relative to control; assay type: functional
[21] = tested on: Mus musculus; test: Reversal of amphetamine-induced hyperlocomotion in po dosed C57BL/6 mouse assessed as minimum effective dose pretreated for 30 mins after habituation in chamber followed by amphetamine challenge and measured after 1 hr; assay type: functional; conditions: C57BL/6, po, 0.5 h, read-out: MED
[22] = Unbound brain-to-plasma concentration ratio in Sprague-Dawley rat at 0.1 to 0.2 mg/kg, iv measured after 1.5 hrs; assay type: ADME, organism-based; conditions: dose 0.1-0.2 mg/kg, read-out: K(p,uu,brain)
[23] = molecular target: D(3) dopamine receptor (Homo sapiens) (UniProt P35462); test: Displacement of [3H]spiperone from full length human dopamine D3 receptor expressed in CHO cells assessed as residual binding level for radioligand at 10 uM incubated for 60 mins by radiometric scintillation analysis relative to control; assay type: cell-based
[24] = species: Rattus norvegicus; test: Displacement of [35S] dATPalphaS from P2Y receptor in Wistar rat brain at 10 uM incubated for 180 mins by radiometric scintillation analysis relative to control; assay type: tissue-based
[25] = molecular target: Cysteinyl leukotriene receptor 1 (Homo sapiens) (UniProt Q9Y271); test: Displacement of [3H]LTD4 from full length recombinant human CysLT1 Leukotriene receptor expressed in CHO-K1 cells assessed as residual binding level for radioligand at 10 uM incubated for 30 mins radiometric scintillation analysis relative to control; assay type: cell-based
Sequence of Cysteinyl leukotriene receptor 1 (Homo sapiens) (Q9Y271 whole entry): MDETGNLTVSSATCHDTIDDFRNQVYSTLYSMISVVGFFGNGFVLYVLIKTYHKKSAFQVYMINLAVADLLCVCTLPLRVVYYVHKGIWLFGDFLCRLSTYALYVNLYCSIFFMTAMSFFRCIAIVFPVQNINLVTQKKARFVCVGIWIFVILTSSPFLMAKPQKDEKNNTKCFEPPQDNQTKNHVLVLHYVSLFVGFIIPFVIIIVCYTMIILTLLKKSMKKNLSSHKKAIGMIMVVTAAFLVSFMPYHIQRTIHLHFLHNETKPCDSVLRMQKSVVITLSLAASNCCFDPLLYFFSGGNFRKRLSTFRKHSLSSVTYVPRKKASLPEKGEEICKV

[26] = molecular target: Endothelin-1 receptor (Homo sapiens) (UniProt P25101); test: Displacement of [125I]endothelin-1 from recombinant full length human recombinant ETA receptor expressed in CHO-S cells assessed as residual binding level for radioligand at 10 uM measured after 120 mins by radiometric scintillation analysis relative to control; assay type: cell-based
Sequence of Endothelin-1 receptor (Homo sapiens) (P25101 whole entry): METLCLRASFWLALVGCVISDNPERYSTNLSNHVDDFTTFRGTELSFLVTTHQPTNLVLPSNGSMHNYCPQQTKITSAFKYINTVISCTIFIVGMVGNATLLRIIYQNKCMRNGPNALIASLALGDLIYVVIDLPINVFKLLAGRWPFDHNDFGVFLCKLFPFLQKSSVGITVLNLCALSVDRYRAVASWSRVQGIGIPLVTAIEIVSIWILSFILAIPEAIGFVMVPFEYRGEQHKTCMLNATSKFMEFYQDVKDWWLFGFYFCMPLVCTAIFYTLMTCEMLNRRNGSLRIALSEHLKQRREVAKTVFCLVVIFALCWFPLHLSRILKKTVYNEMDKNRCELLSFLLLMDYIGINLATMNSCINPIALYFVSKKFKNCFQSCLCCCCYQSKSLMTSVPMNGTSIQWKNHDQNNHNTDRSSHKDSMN

[27] = molecular target: Epidermal growth factor receptor (Homo sapiens) (UniProt P00533); test: Displacement of [125I]-EGF from human EGF receptor expressed in A-431 cells assessed as residual binding level for radioligand at 10 uM incubated for 60 mins by radiometric scintillation analysis relative to control; assay type: cell-based
Sequence of Epidermal growth factor receptor (Homo sapiens) (P00533 whole entry): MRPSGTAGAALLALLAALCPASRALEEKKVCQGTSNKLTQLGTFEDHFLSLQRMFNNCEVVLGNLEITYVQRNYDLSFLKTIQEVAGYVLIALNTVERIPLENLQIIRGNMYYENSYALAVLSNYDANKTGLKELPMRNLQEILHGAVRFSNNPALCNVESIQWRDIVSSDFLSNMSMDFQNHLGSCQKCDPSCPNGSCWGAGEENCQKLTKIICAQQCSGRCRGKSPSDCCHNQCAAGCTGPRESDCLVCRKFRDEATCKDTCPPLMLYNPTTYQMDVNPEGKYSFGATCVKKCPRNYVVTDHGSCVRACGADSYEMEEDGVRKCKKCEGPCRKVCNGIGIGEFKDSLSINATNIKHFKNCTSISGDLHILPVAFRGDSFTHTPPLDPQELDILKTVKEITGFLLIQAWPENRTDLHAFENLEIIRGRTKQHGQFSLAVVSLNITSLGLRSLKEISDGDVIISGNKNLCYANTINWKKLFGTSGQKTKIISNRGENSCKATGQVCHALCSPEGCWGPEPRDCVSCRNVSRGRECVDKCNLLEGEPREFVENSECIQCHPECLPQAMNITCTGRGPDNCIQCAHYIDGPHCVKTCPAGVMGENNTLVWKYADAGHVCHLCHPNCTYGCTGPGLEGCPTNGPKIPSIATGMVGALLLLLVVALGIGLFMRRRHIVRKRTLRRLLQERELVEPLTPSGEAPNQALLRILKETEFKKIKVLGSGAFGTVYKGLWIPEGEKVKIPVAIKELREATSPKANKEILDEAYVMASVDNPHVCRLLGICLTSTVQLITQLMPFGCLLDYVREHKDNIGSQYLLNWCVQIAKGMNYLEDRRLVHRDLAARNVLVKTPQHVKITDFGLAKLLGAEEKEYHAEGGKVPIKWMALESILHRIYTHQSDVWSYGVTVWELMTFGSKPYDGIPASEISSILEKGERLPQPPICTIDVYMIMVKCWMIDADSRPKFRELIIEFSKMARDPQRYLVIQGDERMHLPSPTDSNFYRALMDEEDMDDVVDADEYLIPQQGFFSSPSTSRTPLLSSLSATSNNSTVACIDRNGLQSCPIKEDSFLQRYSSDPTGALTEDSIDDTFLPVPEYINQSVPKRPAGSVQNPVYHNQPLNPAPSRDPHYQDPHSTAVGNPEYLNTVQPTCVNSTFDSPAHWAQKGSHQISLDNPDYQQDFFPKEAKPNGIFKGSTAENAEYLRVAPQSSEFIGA

[28] = species: Rattus norvegicus; test: Displacement of [3H]Muscimol from GABAA channel muscimol binding site in Wistar rat brain assessed as residual binding level for radioligand at 10 uM incubated for 10 mins by scintillation counting analysis relative to control; assay type: tissue-based
[29] = molecular target: Histamine H2 receptor (Homo sapiens) (UniProt P25021); test: Displacement of [125I]aminopotentidine full length recombinant human histamine H2 receptor expressed in CHO-K1 cells assessed as residual binding level for radioligand at 10 uM after 120 mins by scintillation counting analysis relative to control; assay type: cell-based
[30] = molecular target: Histamine H3 receptor (Homo sapiens) (UniProt Q9Y5N1); test: Displacement of [3H]-N-alpha-Methylhistamine from full length recombinant human recombinant Histamine H3 receptor expressed in CHO-K1 cells assessed as residual binding level for radioligand at 10 uM incubated for 120 mins by scintillation counting analysis relative to control; assay type: cell-based
[31] = molecular target: Interleukin-1 receptor type 1 (Homo sapiens) (UniProt P14778); test: Displacement of [125I]-Interleukin 1beta from human interleukin IL-1 R1 receptor assessed as residual binding level for radioligand at 10 uM incubated for 1200 mins by scintillation counting analysis relative to control
[32] = molecular target: Neuropeptide Y receptor type 2 (Homo sapiens) (UniProt P49146); test: Displacement of [125I]peptide YY from human Y2 receptor in KAN-TS cell membrane assessed as residual binding level for radioligand at 10 uM after 120 mins by scintillation counting analysis relative to control
Sequence of Neuropeptide Y receptor type 2 (Homo sapiens) (P49146 whole entry): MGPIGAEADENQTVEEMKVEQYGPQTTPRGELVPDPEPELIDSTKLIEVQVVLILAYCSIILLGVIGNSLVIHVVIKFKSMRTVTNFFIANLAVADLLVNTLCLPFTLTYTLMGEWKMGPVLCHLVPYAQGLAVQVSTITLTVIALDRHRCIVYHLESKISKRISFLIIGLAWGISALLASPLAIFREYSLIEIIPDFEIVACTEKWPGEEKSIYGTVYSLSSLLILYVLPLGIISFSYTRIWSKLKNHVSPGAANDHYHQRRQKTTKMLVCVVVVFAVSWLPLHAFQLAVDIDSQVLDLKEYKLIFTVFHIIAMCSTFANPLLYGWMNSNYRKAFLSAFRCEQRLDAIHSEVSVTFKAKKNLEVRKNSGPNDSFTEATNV

[33] = molecular target: Acetylcholine receptor subunit alpha (Homo sapiens) (UniProt P02708); test: Displacement of [125I]-alpha-Bungarotoxin from full length nAChR alpha1 receptor in human RD cell membranes assessed as residual binding level for radioligand at 10 uM measured after 120 mins by radiometric scintillation analysis relative to control
[34] = tested on: HIT-T15; test: Displacement of [3H]glyburide from KATP receptor in HIT-T15 Syrian hamster pancreatic B cell membranes assessed as residual binding level for radioligand at 10 uM after 120 mins by radiometric scintillation analysis relative to control; assay type: tissue-based; conditions: Mesocricetus auratus
[35] = molecular target: 5-hydroxytryptamine receptor 3A (Homo sapiens) (UniProt P46098); test: Displacement of [3H]GR-65630 from full length human recombinant 5HT3 receptor expressed in HEK293 cells assessed as residual binding level for radioligand at 10 uM measured after 60 mins by radiometric scintillation analysis relative to control; assay type: cell-based
[36] = species: Rattus norvegicus; test: Displacement of [3H]-Batrachotoxinin from Wistar rat sodium channel site 2 assessed as residual binding level for radioligand at 10 uM incubated for 60 mins by scintillation counting analysis relative to control; assay type: tissue-based; conditions: Brain
[37] = molecular target: Glutamate NMDA receptor (Rattus norvegicus) (UniProt P35439+Q00959+Q00960+Q00961+Q62645+Q8VHN2+Q9R1M7); test: Displacement of [3H]MDL 105,519 from glutamate NMDA receptor glycine binding site in Wistar rat cerebral cortical membranes assessed as residual binding level for radioligand at 10 uM incubated for 30 mins by radiometric scintillation analysis relative to control; assay type: tissue-based; conditions: Cerebral cortex
[38] = Brain to plasma permeability coefficient, Kp in cynomolgus monkey; assay type: ADME, Macaca fascicularis

Sequence of Muscarinic acetylcholine receptor M3 (P20309 whole entry): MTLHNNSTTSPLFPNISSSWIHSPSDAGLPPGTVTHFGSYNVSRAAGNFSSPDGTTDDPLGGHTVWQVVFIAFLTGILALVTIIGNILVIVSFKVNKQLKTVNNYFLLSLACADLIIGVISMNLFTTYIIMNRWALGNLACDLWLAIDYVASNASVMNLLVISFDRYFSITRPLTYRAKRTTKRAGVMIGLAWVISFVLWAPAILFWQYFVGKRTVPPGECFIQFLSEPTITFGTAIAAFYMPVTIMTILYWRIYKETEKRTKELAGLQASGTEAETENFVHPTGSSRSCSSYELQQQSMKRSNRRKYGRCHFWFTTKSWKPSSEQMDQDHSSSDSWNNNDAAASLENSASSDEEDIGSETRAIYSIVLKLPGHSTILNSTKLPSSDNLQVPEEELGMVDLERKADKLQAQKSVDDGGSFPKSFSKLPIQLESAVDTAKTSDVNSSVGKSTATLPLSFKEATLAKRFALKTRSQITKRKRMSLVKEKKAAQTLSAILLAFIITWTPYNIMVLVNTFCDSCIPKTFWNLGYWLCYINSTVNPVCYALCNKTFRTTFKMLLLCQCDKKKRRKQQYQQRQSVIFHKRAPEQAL

## COc1nnc2sc(C(=O)NC3CN(c4ncc(C(F)(F)F)cn4)C3)c(N)c2c1C
[1]
  EC50: > 30 µM
[2]
  CLH: 30.5 mL/min/kg
[3]
  fraction unbound: 0.018
[4]
  fraction unbound: 0.039
[5]
  Kp at 0.25 h: 0.34
[6]
  Kp uu at 0.25 h: 0.73
[7]
  efflux ratio: 1.6
[8]
  solubility: 18 µM (≈ 7.91 µg/mL)
[9]
  EC50: 0.028 µM
[10]
  %max: 93%
[11]
  EC50: 0.087 µM
[12]
  %max: 37%
[13]
  EC50: > 30 µM
[14]
  IC50: > 30 µM
[15]
  IC50: > 30 µM
[16]
  bioavailability: 57%
[17]
  clearance: 16 mL/min/kg
[18]
  Vd: 0.74 L/kg
[19]
  half-life: 1.3 h
[20]
  Activity: 54%
[21]
  minimal effective dose: 1 mg/kg
[22]
  Kp uu at 1.5 h: 0.35
[23]
  Activity: > 50%
[24]
  Activity: > 50%
[25]
  Activity: > 50%
[26]
  Activity: > 50%
[27]
  Activity: > 50%
[28]
  Activity: > 50%
[29]
  Activity: > 50%
[30]
  Activity: > 50%
[31]
  Activity: > 50%
[32]
  Activity: > 50%
[33]
  Activity: > 50%
[34]
  Activity: > 50%
[35]
  Activity: > 50%
[36]
  Activity: > 50%
[37]
  Activity: > 50%
[38]
  Kp: 1.7
